Data published in patent publication US9272993B2, “Naphthoquinone derivatives useful for prevention of amyloid deposits and treatment of diseases involving amyloidogenesis” (TECHNOLOGY INNOVATION MOMENTUM FUND (ISRAEL) LIMITED …, priority 2008, dated 2016).
Read-outs that look alike come from different tables or passages of the source.

Tests used:
Aβ1-42 = target: T1, Aβ1-42 (Homo sapiens, UniProt P05067); experiment: Fluorescence anisotropy (polarization) titration with Aβ1-42; type: binding
T1 construct: Amyloid β-peptide(1-42) and amyloid β-peptide(1-40) trifluoroacetate salts; purchased Bachem (Bubendorf, Switzerland); host or cells: synthetic peptide
Protocol: For the florescence anisotropy studies SY-81 or SY-83 was dissolved in DMSO to a concentration of 1 μM and sonicated for 5 min. The solution was immediately mixed with aliquots of an Aβ1-42 stock solution (20 μM) to varying final polypeptide concentrations. SY-81 and SY-83 polarization measurements were carried out using an ISS K2 fluorimeter. The solutions were excited at 280 nm and emission was monitored at 350 nm. For each single point, at least five measurements were collected and their average values were used for the calculation. All experiments were performed in PBS (pH 7.4).
Increasing amounts of Aβ were titrated into a solution of SY-83 or SY-81 and the anisotropy 15 was determined (FIG. 4A-B).

Aβ1-40 fibrils = target: T2, Aβ1-40 fibrils (Homo sapiens, UniProt P05067); experiment: Thioflavin T (ThT) fluorescence assay of fibril formation; type: biochemical
T2 construct: Amyloid β-peptide(1-42) and amyloid β-peptide(1-40) trifluoroacetate salts; purchased Bachem (Bubendorf, Switzerland); host or cells: synthetic peptide
Protocol: For executing the ThT florescence assay, Aβ1-40 was dissolved to a concentration of 10 μM in 10% DMSO in PBS (pH 7.4). Aβ was immediately mixed with or without different concentrations of SY-81 or SY-83 at a 1:1 ration to a final concentration of 5 μM. The samples were incubated at 37° C. and the fibrillogenesis rate was followed by thioflavin T (ThT) fluorescence assay (excitation at 450 nm, 2.5 nm slit, and emission at 480 nm, 5 nm slit), over a course of 11 days to two weeks. ThT was added to a 10-fold diluted sample and measured using a Jobin Yvon Horiba Fluoromax 3 fluorimeter.
Though there is a growing recognition that the early Aβ oligomer intermediates and not the fibrils are the most toxic amyloid forms in AD, this debate has not been completely resolved. […] This method provides quantitative information on amyloid fibrils growth. β-amyloid was allowed to form amyloid fibrils either in the presence of different concentrations of SY-83 (FIGS. 5A, C) or SY-81 (FIGS. 5B, D) or with no inhibitor (WT). The fibrillization process was followed for several days until a plateau state was reached. Fluorescence values were measured throughout.
An end point experiment was further conducted with various concentrations of SY-81 and SY-83 in order to determine IC50. An IC50 of 50 nM and 100 nM was measured for SY-81 and SY-83, respectively. […]

56 KD Aβ species = experiment: Western blot of soluble brain fractions (6E10 antibody); type: in vivo; details: 5XFAD mice, 1 mg intraperitoneally every other day for 4 months
rat PC12 cell line = experiment: MTT cell viability assay, cytotoxicity of soluble Aβ oligomers; type: cell-based; details: PC12 cells, 24 hours
Protocol: The cytotoxicity assay was performed with Rat PC12 cells (1.5×10^5 cells/mL) cultured in 96-well microplates (100 μL/well) and incubated overnight at 37° C. Samples with toxic oligomers from above were either dialyzed over night against PBS buffer or diluted with 9 volumes of an aqueous solution containing 33% methanol and 4% acetic acid, and incubated for 2 hours at 4° C. The samples were then centrifuged at 16,000 g for 40 minutes, the supernatant discarded and the pellet was resuspended in 5 mM NaH2PO4, 35 mM NaCl, pH 7.4. To each well we added 100 μL of 0.5 μM Aβ which formed toxic oligomers and prepared mixtures of inhibitors at various concentrations. Each experiment was repeated four times. Following incubation for 24 hours at 37° C., cell viability was evaluated using the MTT assay. Briefly, 20 μL of 5 mg/mL MTT dissolved in PBS was added to each well. […] Finally, color intensity was measured using an ELISA reader at 570 nm.
To further substantiate the inhibition induced by SY-81, it was tested whether SY-81 affects the toxicity of Aβ oligomers towards the rat PC12 cell line. Toxic oligomers were pre-incubated with different concentrations of SY-81 and toxicity was assessed using the MTT cell viability assay.

[1] = Locomotion (climbing) assay in Alzheimer's Drosophila model; type: in vivo, Drosophila melanogaster; details: medium with 0.75 mg/ml, control males lacking Aβ1-42 expression
Protocol: In vivo studies (fly maintenance) were performed with Drosophila melanogaster flies grown on a standard corneal-molasses medium and kept at 25° C. As Drosophila females can store sperm cells in their bodies, crosses were conducted using virgin females collected no longer than 8 hours after eclosion at 25° C. or 18 hours after eclosion at 18° C. Adult offspring (F1) from the crosses were collected up to 9 days after the beginning of their eclosion at 25° C. in order to avoid collection of offspring from the next generation (F2). […]
The locomotion (climbing) assay was carried out in fresh rearing vials, each containing 10 flies of a given class (four classes mentioned below). […] The percent of flies which climbed to the top of the test tube was then calculated over time. […] Data were analyzed using standard ANOVA statistical exams.
In order to assess the effect of SY-81 and SY-83 in the living organism, a Drosophila model of Alzheimer's was used, based on the work of Crowther et al. (ibid) who generated transgenic flies that express the human Aβ1-42 protein conditionally, using the UAS-Gal4 expression system. […] These defects included progressive decline of locomotion in aged flies (measured as ability to climb up), and marked shortening of life span. […]
Suppression of climbing defects was assessed as detailed below in flies genotype: Gal4-elav^c155 UAS-Aβ1-42. […]

T2 sequence (P05067 672-711 limits assumed): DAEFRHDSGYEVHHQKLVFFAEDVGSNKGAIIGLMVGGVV
T1 sequence (P05067 672-713 limits assumed): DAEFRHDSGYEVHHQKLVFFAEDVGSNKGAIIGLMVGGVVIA

O=C1C(Cl)=C(NC(Cc2c[nH]c3ccccc23)C(=O)O)C(=O)c2ccccc21 (stereo not shown) [SY-83]
Kd (Aβ1-42): ~0.9 µM | IC50 (Aβ1-40 fibrils): 0.1 µM | reduction in 56 KD Aβ species in soluble brain fractions (56 KD Aβ species): 91%

O=C1C=C(NC(Cc2c[nH]c3ccccc23)C(=O)O)C(=O)c2ccccc21 (stereo not shown) [SY-81]
Kd (Aβ1-42; fluorescence anisotropy, PBS pH 7.4, read-out: affinity towards Aβ): ~0.09 µM | toxic effect of the compound on its own (cell viability) (rat PC12 cell line): no toxic effect | IC50 (Aβ1-40 fibrils; end point experiment, various concentrations, read-out: IC50 of fibril formation): 0.05 µM | climbing behavior of control males [1]: No effect
